The target in the test is T1, STING (Homo sapiens, UniProt Q86WV6, G230A/H232R/R293Q/R71H).
T1 construct: host or cells: THP1-Dual KO-IFNAR2 cells
Briefly: STING reporter assay (luciferase) in THP1-Dual KO-IFNAR2 cells stimulated with 2′3′cGAMP. Format: cell-based. To be noted: 2′3′cGAMP 15 μM final, 24 h, luciferase reporter activity, read-out: Pharmaron, THP1_IFNAR2 STING 24 h Luci Normalized: GeoMean EC50. The method, boiled down:
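THP1-Dual KO-IFNAR2 cells (2×10E6 cells/mL) exposed to compounds at 0.0017-100 μM final and stimulated with 2′3′cGAMP (15 μM final) delivered via Lipofectamine 2000. After 24 h at 37° C., secreted luciferase in supernatant read with QUANTI-Luc Plus; EC50 derived from luminescence.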
For orientation: Reporter assays use an easily measured gene product as a stand-in for the process of interest.

Consider twelve molecules from patent US20230250060A1 (IFM Due, Inc., priority 2022, published 2023).

In general, EC50 refers to the midpoint of the concentration-response curve.

T1 sequence (Q86WV6 whole entry R71H/G230A/H232R/R293Q): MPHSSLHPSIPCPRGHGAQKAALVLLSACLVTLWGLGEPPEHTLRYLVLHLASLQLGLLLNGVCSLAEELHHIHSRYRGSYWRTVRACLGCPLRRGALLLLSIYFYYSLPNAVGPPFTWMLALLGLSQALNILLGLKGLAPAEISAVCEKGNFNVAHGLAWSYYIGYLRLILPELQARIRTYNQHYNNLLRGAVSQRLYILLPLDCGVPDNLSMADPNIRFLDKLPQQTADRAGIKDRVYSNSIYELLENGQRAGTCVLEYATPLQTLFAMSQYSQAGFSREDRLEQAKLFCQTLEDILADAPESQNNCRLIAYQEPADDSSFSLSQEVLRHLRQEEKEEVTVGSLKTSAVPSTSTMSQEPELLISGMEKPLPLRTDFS

For the molecule `O=C(Nc1c[nH]c2ccc(OCC[C@@H]3C[C@@H]4CN(CC(F)(F)F)C[C@@H]4C3)cc12)c1ccccn1` [Compound 183, N-(5-(2-((3aR,5r,6aS)-2-(2,2,2-trifluoroethyl)octahydrocyclopenta[c]pyrrol-5-yl)ethoxy)-1H-indol-3-yl)picolinamide], the EC50 was in the range of 1 to 5 µM.

Consider `O=C(CC1CC1)Nc1c[nH]c2ccc(OCC[C@@H]3C[C@@H]4CN(CC(F)(F)F)C[C@@H]4C3)cc12` [Compound 184], for which the EC50 lay in the range of 0.2 to 1 µM.

In the case of `O=C(Nc1c[nH]c2ccc(OCC[C@@H]3C[C@@H]4CN(CC(F)(F)F)C[C@@H]4C3)cc12)C12CC(F)(C1)C2` [Compound 185, 3-fluoro-N-(5-(2-((3aR,5r,6aS)-2-(2,2,2-trifluoroethyl)octahydrocyclopenta[c]pyrrol-5-yl)ethoxy)-1H-indol-3-yl)bicyclo[1.1.1]pentane-1-carboxamide], the EC50 was in the range of 0.2 to 1 µM.

For the molecule `O=C(Nc1c[nH]c2ccc(OCC[C@@H]3C[C@@H]4CN(CC(F)(F)F)C[C@@H]4C3)cc12)C12CC(C1)C2` [Compound 186, N-(5-(2-((3aR,5r,6aS)-2-(2,2,2-trifluoroethyl)octahydrocyclopenta[c]pyrrol-5-yl)ethoxy)-1H-indol-3-yl)bicyclo[1.1.1]pentane-1-carboxamide], the EC50 fell in the range of 0.2 to 1 µM.

`O=C(Nc1c[nH]c2ccc(OCC[C@@H]3C[C@@H]4CN(CC(F)(F)F)C[C@@H]4C3)cc12)c1ncccc1F` [Compound 187, 3-fluoro-N-(5-(2-((3aR,5r,6aS)-2-(2,2,2-trifluoroethyl)octahydrocyclopenta[c]pyrrol-5-yl)ethoxy)-1H-indol-3-yl)picolinamide]: the EC50 was in the range of 1 to 5 µM.

Turning to `O=C(Nc1c[nH]c2ccc(OCC[C@@H]3C[C@@H]4CN(CC(F)(F)F)C[C@@H]4C3)cc12)c1nccs1` [Compound 188, N-(5-(2-((3aR,5r,6aS)-2-(2,2,2-trifluoroethyl)octahydrocyclopenta[c]pyrrol-5-yl)ethoxy)-1H-indol-3-yl)thiazole-2-carboxamide], the EC50 lay within 0.2 to 1 µM.

For the molecule `Cc1noc(C)c1C(=O)Nc1c[nH]c2ccc(OCC[C@@H]3C[C@@H]4CN(CC(F)(F)F)C[C@@H]4C3)cc12` [Compound 189, 3,5-dimethyl-N-(5-(2-((3aR,5r,6aS)-2-(2,2,2-trifluoroethyl)octahydrocyclopenta[c]pyrrol-5-yl)ethoxy)-1H-indol-3-yl)isoxazole-4-carboxamide], the EC50 was in the range of 0.2 to 1 µM.

With `O=C(Nc1c[nH]c2ccc(OCC[C@@H]3C[C@@H]4CN(CC(F)(F)F)C[C@@H]4C3)cc12)c1cncs1` [Compound 190, N-(5-(2-((3aR,5r,6aS)-2-(2,2,2-trifluoroethyl)octahydrocyclopenta[c]pyrrol-5-yl)ethoxy)-1H-indol-3-yl)thiazole-5-carboxamide], the EC50 lay within 0.2 to 1 µM.

Take `O=C(Nc1c[nH]c2ccc(OCCc3ccc(C(F)(F)F)cc3)cc12)C1CC2(CCC2)C1` [Compound 191, N-(5-(4-(trifluoromethyl)phenethoxy)-1H-indol-3-y)spiro[3.3]heptane-2-carboxamide]: the EC50 lay in the range of 0.04 to 0.2 µM.

Take `O=C(Nc1c[nH]c2ccc(O[C@H]3C[C@@H](c4ccc(C(F)(F)F)cc4)C3)cc12)c1cscn1` [Compound 192, N-(5-((1s,3s)-3-(4-(trifluoromethyl)phenyl)cyclobutoxy)-1H-indol-3-yl)thiazole-4-carboxamide]: the EC50 was in the range of 0.2 to 1 µM.

`O=C(Nc1c[nH]c2ccc(OCC[C@@H]3C[C@@H]4CN(CC(F)(F)F)C[C@@H]4C3)cc12)c1cscn1` [Compound 193, N-(5-(2-((3aR,5r,6aS)-2-(2,2,2-trifluoroethyl)octahydrocyclopenta[c]pyrrol-5-yl)ethoxy)-1H-indol-3-yl)thiazole-4-carboxamide]: the EC50 is 0.2 to 1 µM.

As for `O=C(Nc1c[nH]c2ccc(CCOc3ccc(C(F)(F)F)cc3)cc12)c1ccncc1` [Compound 194, N-(5-(2-(4-(trifluoromethyl)phenoxy)ethyl)-1H-indol-3-yl)isonicotinamide], the EC50 lay within 0.2 to 1 µM.
